Key:
UV-spectra measurement = format: physicochemical
Description: Spectra were acquired using a Unicam UV-2 UV/VIS spectro-photometer. All absorption spectra were obtained using 1 cm cuvettes, scanning within the 200-800 nm range. Solutions were prepared in a 100 cm^3 volumetric flask, and, if required, subsequently diluted so that a maximum absorbance of less than 2 was obtained. From the absorption the molar extinction coefficient e was calculated in liter*mol^−1*cm^−1.

[1] = Solubility in water and organic solvents (observation); format: physicochemical
Description: After cooling, the pH of the solution was adjusted to 4 with about 100 ml of a 50 wt % aqueous solution of acetic acid to precipitate a yellow solid. The solid was collected by filtration and dissolved in a saturated aqueous solution (100 ml) of sodium carbonate. Insoluble material was removed by filtration and the pH of the filtrate was adjusted to 5 to 6 with aqueous acetic acid to precipitate a yellow solid. The solid was collected by filtration and re-crystallized from 130 ml ethanol.

[2] = Solubility in multifunctional acrylates; format: physicochemical; conditions: 10 and 20 weight % in PPTTA, TMPTA and EO-TMPTA, stirred 10 minutes at 45° C.
Description: • Mn: 1050 Da, Mw 1360 Da • IR: v [cm-1]: 3318, 2930, 2861, 1716 (s), 1641, 1590 (vs), 1525, 1450, 1364, 1284, 1228, 1146, 1068, 927, 826, 770 Solubility: • The product as obtained according to Example 10 was added to different multifunctional acrylates to check solubility. Propoxylated pentaerythritol tetraacrylate (SR 494 LM, Sartomer company) (PPTTA), trimethylol propane triacrylate (SR 351M, Sartomer company) (TMPTA) and ethoxylated trimethylol propane triacrylate (Ebecryl LEO 10501, Allnex company) (EO-TMPTA) were used. The compound of example 10 was added in amounts of 10 and 20 weight % to each of the acrylates and stirred for 10 minutes at 45° C. In all cases (even at 20 weight %), clear, intense yellow, transparent mixtures were obtained.

**Q.** Which results are given for CN(C)c1ccc(C(=O)c2ccc(N(C)C)cc2C(=O)[O-])cc1.[K+] [Example 6, 5-(dimethylamino)-2-[4-(dimethylamino)benzoyl]-benzoic acid potassium salt]?
**A.** UV-spectroscopy: λmax (H2O) (UV-spectra measurement; in H2O): 365 nm; Molar extinction coefficient (UV-spectra measurement; in water): 36192 L/mol/cm; Solubility in methylene chloride ([1]; methylene chloride): limited solubility in methylene chloride; Solubility in water ([1]; water): good solubility in water

**Q.** Which “Solubility in DMSO” value ([1]; DMSO) does the source give for CN(C)c1ccc(C(=O)c2ccc(N(C)C)cc2C(=O)O)cc1 [Example 2, 5-(dimethylamino)-2-[4-(dimethylamino)benzoyl]-benzoic acid] here?
**A.** soluble in DMSO

**Q.** What about the melting point of the same molecule?
**A.** 269 to 272 °C

**Q.** For CCCCOCC(COC(=O)c1cc(N(C)C)ccc1C(=O)c1ccc(N(C)C)cc1)OC(=O)NCCCCCCNC(=O)OC(COCCCC)COC(=O)c1cc(N(C)C)ccc1C(=O)c1ccc(N(C)C)cc1 (stereo not shown) [Example 10], which “Solubility in multifunctional acrylates” value [2] is on record?
**A.** very good solubility
